Reference: US8138350B2, “N′-cyano-N-halogenalkylimidamide derivatives” (Bayer Cropscience AG, priority 2006, dated 2012)

Columns and labels:
Format in all cases: in vivo
Ctenocephalides felis = assay: Ctenocephalides felis; oral; settings: 100 ppm in citrated cattle blood, after 2 d, adult fleas, comparative example
Experimental: Ctenocephalides Felis; Oral
(§1) Solvent: Dimethyl sulphoxide
To produce a suitable preparation of active compound, 1 part by weight of active compound is mixed with the stated amount of […]. Part of the concentrate is diluted with citrated cattle blood, and the desired concentration is prepared.
20 unfed adult fleas (Ctenocephalides felis) are placed into a chamber whose top and bottom ends are closed with gauze. A metal cylinder whose bottom end is closed with parafilm is placed onto the chamber. The cylinder contains the blood/active compound preparation, which can be taken up by the fleas through the parafilm membrane. The blood is warmed to 37° C., but the flea chamber is at room temperature.
After the desired period of time, the kill in % is determined. 100% means that all fleas have been killed; 0% means that none of the fleas have been killed.

Phaedon cochleariae = assay: Phaedon test (spray treatment); settings: 20 g/ha; after 7 d; comparative example
Experimental: Phaedon Test (Spray Treatment)
To produce a suitable preparation of active compound, 1 part by weight of active compound is mixed with the stated amounts of solvents and emulsifier, and the concentrate is diluted with emulsifier-containing water to the desired concentration.
After the desired period of time, the activity in % is determined. 100% means that all beetle larvae have been killed, 0% means that none of the beetle larvae have been killed.
In this test, for example, the following compounds of the Preparation Examples show an activity of ≧80% at an application rate of 500 g/ha: […]

Musca domestica = Musca domestica test; settings: 100 ppm; treated sponge; after 2 d; adult flies; comparative example
Experimental: as §1
To produce a suitable preparation of active compound, 1 part by weight of active compound is mixed with the stated amount of water, and the concentrate is diluted with water to the desired concentration.
Containers containing a sponge treated with the active compound preparation of the desired concentration are populated with adult Musca domestica.
After the desired period of time, the kill in % is determined. 100% means that all flies have been killed; 0% means that none of the flies have been killed.

Compound	Ctenocephalides felis % 2 d (kill) (Ctenocephalides felis) [%]	Phaedon test spray treatment % 7 d (Phaedon cochleariae) [%]	Musca domestica % 2 d (kill) (Musca domestica) [%]
CCN(Cc1ccc(Cl)nc1)C(C)=NC#N	30	0	0
CC(=NC#N)N(Cc1ccc(Cl)nc1)CC(F)F [I-1, N-[(6-chloropyridin-3-yl)methyl]-N′-cyano-N-(2,2-difluoroethyl)ethanimidamide]	70	100	100
